Source: ChEMBL document CHEMBL5244200, “MicroRNAs as novel endogenous targets for regulation and therapeutic treatments” (Medchemcomm, 2018)
Each block holds one compound with its values, some of them ahead of it.

Key:
[1] = Inhibition of miRNA (unknown origin)
[2] = Inhibition of miRNA (unknown origin) by fluorescence polarization assay
[3] = Inhibition of miR-122 (unknown origin)
[4] = Inhibition of mature miR-122 (unknown origin) at 10 uM relative to control
[5] = test system: Hepatitis C virus; experiment: Antiviral activity against HCV; format: functional, Hepacivirus hominis
[6] = test system: Huh7 (Homo sapiens); experiment: Inhibition of miR-122 in human Huh7 cells assessed as fold increase at 10 uM by luciferase signal
[7] = Inhibition of miR-21 in human HeLa cells assessed as inhibition; format: cell-based
[8] = test system: HeLa; experiment: Inhibition of pri-miR-21 in human HeLa cells assessed as reduction in expression level at 10 uM relative to control; format: cell-based
[9] = Inhibition of miR-122 (unknown origin) by luciferase signalling
[10] = Inhibition of pri-miR-122 (unknown origin) at 10 uM relative to control
[11] = Effect on miR-96 in human MCF7 cells assessed as decrease in expression level at 40 uM relative to control; format: functional; parameters: scale not given: the % may be the effect or the level left
[12] = Activation of miR-122 (unknown origin) by luciferase assay
[13] = test system: HepG2; experiment: Cytotoxicity against human HepG2 cells assessed as reduction in cell viability measured after 24 hrs at 10 uM relative to control; format: toxicity, cell-based; settings: hepg2, 24 h
[14] = Activation of miRNA (unknown origin)
[15] = test system: HCT-116; experiment: Antiproliferative activity against human HCT-116 cells assessed as reduction in cell viability measured after 72 hrs by MTT assay; format: functional, cell-based; settings: HCT-116, 72 h
[16] = Inhibition of miR-210 (unknown origin)
[17] = Effect on pre-miR-210 in human MDA-MB-231 cells assessed as fold increase at 200 nM; format: functional
[18] = Effect on pri-miR-210 in human MDA-MB-231 cells assessed as fold increase at 200 nM; format: functional
[19] = In vivo inhibition of miR-210 in human MDA-MB-231 cells xenografted with SCID mouse assessed as reduction in protein level under hypoxia condition relative to control; format: functional; parameters: scale not given: the % may be the effect or the level left
[20] = Upregulation of GPD1L in human MDA-MB-231 cells assessed as fold increase in expression level; format: functional
[21] = In vivo inhibition of miR-210 in human MDA-MB-231 cells xenografted with SCID mouse assessed as reduction in […] level at 20 pmol relative to control; parameters: scale not given: the % may be the effect or the level left
[22] = Induction of human MDA-MB-231 cells assessed as induces increasing in apoptotic rate by western blot analysis relative to control; format: functional
[23] = test system: pre-miR-544 (human); experiment: Effect on pre-miR-544 in human MCF-10A cells assessed as fold increasing level
[24] = test system: miR-544 (human); experiment: Effect on miR-544 in human MCF-10A cells assessed as reduction in expression level relative to control; parameters: scale not given: the % may be the effect or the level left
[25] = test system: MCF7; experiment: Inhibition of miR-21 in human MCF7 cells assessed as fold increase at 10 uM by luciferase signalling assay; format: cell-based
[26] = test system: MCF7; experiment: Inhibition of miR-21 in human MCF7 cells assessed as fold increase in PDCD4 protein level; format: cell-based
[27] = test system: MCF7; experiment: Induction of apoptosis human MCF7 cells at 5 uM assessed as fold increase in apoptotic rate; format: functional
[28] = Inhibition of myomiRs (unknown origin)
[29] = Inhibition of miR-206 (unknown origin)
[30] = test system: MCF7; experiment: Inhibition of miR-27a (unknown origin) transfected in human MCF7 cells assessed as fold increase at 20 uM by luciferase assay; format: cell-based

IC50 [1]: 470 nM
IC50 [2]: 470 nM
SMILES: O=C(O)C1=CC(=C(c2ccc(O)c(C(=O)O)c2)c2ccc(O)c(C(=O)O)c2)C=CC1=O [AURINTRICARBOXYLIC ACID]

IC50 [3]: 3000 nM
inhibition [4]: 50%
SMILES: O=C(Nc1ccc2ccccc2c1)c1ccc(Cl)cc1Cl
Activity [5]: 50%
fold change (FC) [6]: 7.7

EC50 [7]: 2000 nM
SMILES: C#CCNC(=O)c1ccc(/N=N/c2ccc(N)cc2)cc1
inhibition [8]: 80%

EC50 [12]: 3000 nM
SMILES: CN(C)CCN1C(=O)c2cccc3cccc(c23)C1=O
Activity [13]: 80%

EC50 [14]: 30000 nM
EC50 [15]: 124000 nM
SMILES: CCn1cc(C(=O)O)c(=O)c2cc(F)c(N3CCNCC3)nc21 [ENOXACIN]

IC50 [16]: 200 nM
SMILES: CN1CCN(c2ccc3nc(-c4ccc5[nH]c(-c6cccc(OCCCC(=O)NCCN=[N+]=[N-])c6)nc5c4)[nH]c3c2)CC1
fold change (FC) [17]: 2.6
fold change (FC) [18]: 3
Activity [19]: 90%
fold change (FC) [20]: 5
Activity [21]: 75%

IC50 [28]: 2500 nM
IC50 [29]: 5000 nM
SMILES: COC12C(=O)c3ccccc3C(=O)C1C(c1ccccc1)=C2c1ccc(OC(=O)OC(C)(C)C)c2ncccc12 (configuration not stated)

The remaining lines, values behind:

SMILES: O=S(=O)(c1ccc2c(c1)CCCN2)N1CCC[C@H]2CCCC[C@@H]21
IC50 [9]: 600 nM
inhibition [10]: 90%
Activity [5]: 50%
fold change (FC) [6]: 12.5

SMILES: CN1CCN(c2ccc3nc(-c4cc(C(C)(C)C)c(OCCCC(=O)NCCCN=[N+]=[N-])c(C(C)(C)C)c4)[nH]c3c2)CC1
Activity [11]: 90%

SMILES: N#Cc1c(N2CCCC2)nc(N)c2c(N)nc(N3CCCC3)cc12
Activity [22]: 60%
fold change (FC) [23]: 2
Activity [24]: 90%

SMILES: CN[C@@H]1[C@H](O[C@H]2[C@H](O[C@H]3[C@H](O)[C@@H](O)[C@H](N=C(N)N)[C@@H](O)[C@@H]3N=C(N)N)O[C@@H](C)[C@]2(O)C=O)O[C@@H](CO)[C@H](O)[C@H]1O [STREPTOMYCIN]
fold change (FC) [25]: 1.4
fold change (FC) [26]: 2
fold change (FC) [27]: 2

SMILES: NC[C@@H]1O[C@H](O[C@H]2[C@@H](O)[C@H](O[C@@H]3[C@@H](O)[C@H](N)C[C@H](N)[C@H]3O[C@H]3O[C@H](CN)[C@@H](O)[C@H](O)[C@H]3N)O[C@@H]2CO)[C@H](N)[C@@H](O)[C@@H]1O
fold change (FC) [30]: 1.2
